Legend:
FLT3(D835H) = target: T1, FLT3(D835H) (Homo sapiens, UniProt P36888, D835H); assay: KINOMEscan at 1 μM, FLT3(D835H); type: binding; settings: 1000 nM, read-out: Percent Control
T1 construct: purchased Eurofins DiscoverX KINOMEscan
From the text: (§1) Supplement cells-12-00287-s001.zip/File S2. KinomeScan data for the CAMKK2 probe and negative control.xlsx, sheet "SGC-CAMKK2-1N" | column: Percent Control

[1] = target: T2, RSK3(Kin.Dom.2-C-terminal) (Homo sapiens, UniProt Q15349); assay: KINOMEscan at 1 μM, RSK3(Kin.Dom.2-C-terminal); type: binding; settings: 1000 nM, read-out: Percent Control
T2 construct: RSK3(Kin.Dom.2-C-terminal); purchased Eurofins DiscoverX KINOMEscan
From the text: as §1

CIT = target: T3, CIT (Homo sapiens, UniProt O14578); assay: KINOMEscan at 1 μM, CIT; type: binding; settings: 1000 nM, read-out: Percent Control
T3 construct: purchased Eurofins DiscoverX KINOMEscan
From the text: as §1

MRCKA = target: T4, MRCKA (Homo sapiens, UniProt Q5VT25); assay: KINOMEscan at 1 μM, MRCKA; type: binding; settings: 1000 nM, read-out: Percent Control
T4 construct: purchased Eurofins DiscoverX KINOMEscan
From the text: as §1

TAOK2 = target: T5, TAOK2 (Homo sapiens, UniProt Q9UL54); assay: KINOMEscan at 1 μM, TAOK2; type: binding; settings: 1000 nM, read-out: Percent Control
T5 construct: purchased Eurofins DiscoverX KINOMEscan
From the text: as §1

CSNK1D = target: T6, CSNK1D (Homo sapiens, UniProt P48730); assay: KINOMEscan at 1 μM, CSNK1D; type: binding; settings: 1000 nM, read-out: Percent Control
T6 construct: purchased Eurofins DiscoverX KINOMEscan
From the text: as §1

[2] = target: T7, TYK2(JH2domain-pseudokinase) (Homo sapiens, UniProt P29597); assay: KINOMEscan at 1 μM, TYK2(JH2domain-pseudokinase); type: binding; settings: 1000 nM, read-out: Percent Control
T7 construct: TYK2(JH2domain-pseudokinase); purchased Eurofins DiscoverX KINOMEscan
From the text: as §1

FGFR4 = target: T8, FGFR4 (Homo sapiens, UniProt P22455); assay: KINOMEscan binding assay at 1 μM, FGFR4; settings: Compound Concentration 1000 nM; read-out: Percent Control
T8 construct: purchased Eurofins DiscoverX KINOMEscan
From the text: as §1

SLK = target: T9, SLK (Homo sapiens, UniProt Q9H2G2); assay: KINOMEscan binding assay at 1 μM, SLK; settings: Compound Concentration 1000 nM; read-out: Percent Control
T9 construct: purchased Eurofins DiscoverX KINOMEscan
From the text: as §1

RIPK5 = target: T10, RIPK5 (Homo sapiens, UniProt Q6XUX3); assay: KINOMEscan at 1 μM, RIPK5; type: binding; settings: 1000 nM, read-out: Percent Control
T10 construct: purchased Eurofins DiscoverX KINOMEscan
From the text: as §1

TBK1 = target: T11, TBK1 (Homo sapiens, UniProt Q9UHD2); assay: KINOMEscan at 1 μM, TBK1; type: binding; settings: 1000 nM, read-out: Percent Control
T11 construct: purchased Eurofins DiscoverX KINOMEscan
From the text: as §1

CHEK1 = target: T12, CHEK1 (Homo sapiens, UniProt O14757); assay: KINOMEscan at 1 μM, CHEK1; type: binding; settings: 1000 nM, read-out: Percent Control
T12 construct: purchased Eurofins DiscoverX KINOMEscan
From the text: as §1

CASK = target: T13, CASK (Homo sapiens, UniProt O14936); assay: KINOMEscan at 1 μM, CASK; type: binding; settings: 1000 nM, read-out: Percent Control
T13 construct: purchased Eurofins DiscoverX KINOMEscan
From the text: as §1

PRKD1 = target: T14, PRKD1 (Homo sapiens, UniProt Q15139); assay: KINOMEscan binding assay at 1 μM, PRKD1; settings: Compound Concentration 1000 nM; read-out: Percent Control
T14 construct: purchased Eurofins DiscoverX KINOMEscan
From the text: as §1

DYRK1A = target: T15, DYRK1A (Homo sapiens, UniProt Q13627); assay: KINOMEscan at 1 μM, DYRK1A; type: binding; settings: 1000 nM, read-out: Percent Control
T15 construct: purchased Eurofins DiscoverX KINOMEscan
From the text: as §1

IRAK3 = target: T16, IRAK3 (Homo sapiens, UniProt Q9Y616); assay: KINOMEscan at 1 μM, IRAK3; type: binding; settings: 1000 nM, read-out: Percent Control
T16 construct: purchased Eurofins DiscoverX KINOMEscan
From the text: as §1

IGF1R = target: T17, IGF1R (Homo sapiens, UniProt P08069); assay: KINOMEscan 1 μM, IGF1R; type: binding; settings: 1000 nM; Entrez IGF1R; read-out: Percent Control
T17 construct: purchased Eurofins DiscoverX KINOMEscan
From the text: (§2) Supplement cells-12-00287-s001.zip/File S2. KinomeScan data for the CAMKK2 probe and negative control.xlsx, sheet "SGC-CAMKK2-1" | column: Percent Control

EGFR(L747-T751del,Sins) = assay: KINOMEscan 1 μM, EGFR(L747-T751del,Sins); type: binding, human; settings: 1000 nM; Entrez EGFR
From the text: as §2

TXK = target: T18, TXK (Homo sapiens, UniProt P42681); assay: DiscoverX KINOMEscan binding assay at 1 μM, TXK; settings: Compound Concentration 1000 nM, read-out: Percent Control
T18 construct: purchased Eurofins DiscoverX KINOMEscan
From the text: as §2

CDC2L2 = target: T19, CDC2L2 (Homo sapiens, UniProt Q9UQ88); assay: KINOMEscan 1 μM, CDC2L2; type: binding; settings: 1000 nM; Entrez CDC2L2; read-out: Percent Control
T19 construct: purchased Eurofins DiscoverX KINOMEscan
From the text: as §2

MYLK2 = target: T20, MYLK2 (Homo sapiens, UniProt Q9H1R3); assay: KINOMEscan 1 μM, MYLK2; type: binding; settings: 1000 nM; Entrez MYLK2; read-out: Percent Control
T20 construct: purchased Eurofins DiscoverX KINOMEscan
From the text: as §2

STK16 = target: T21, STK16 (Homo sapiens, UniProt O75716); assay: KINOMEscan 1 μM, STK16; type: binding; settings: 1000 nM; Entrez STK16; read-out: Percent Control
T21 construct: purchased Eurofins DiscoverX KINOMEscan
From the text: as §2

PRKCH = target: T22, PRKCH (Homo sapiens, UniProt P24723); assay: DiscoverX KINOMEscan binding assay at 1 μM, PRKCH; settings: Compound Concentration 1000 nM, read-out: Percent Control
T22 construct: purchased Eurofins DiscoverX KINOMEscan
From the text: as §2

[3] = target: T23, RSK4(Kin.Dom.2-C-terminal) (Homo sapiens, UniProt Q9UK32); assay: DiscoverX KINOMEscan binding assay at 1 μM, RSK4(Kin.Dom.2-C-terminal); settings: RSK4(Kin.Dom.2-C-terminal) (RPS6KA6); Compound Concentration 1000 nM; read-out: Percent Control
T23 construct: RSK4(Kin.Dom.2-C-terminal); purchased Eurofins DiscoverX KINOMEscan
From the text: as §2

MAST1 = target: T24, MAST1 (Homo sapiens, UniProt Q9Y2H9); assay: KINOMEscan 1 μM, MAST1; type: binding; settings: 1000 nM; Entrez MAST1; read-out: Percent Control
T24 construct: purchased Eurofins DiscoverX KINOMEscan
From the text: as §2

TNIK = target: T25, TNIK (Homo sapiens, UniProt Q9UKE5); assay: KINOMEscan 1 μM, TNIK; type: binding; settings: 1000 nM; Entrez TNIK; read-out: Percent Control
T25 construct: purchased Eurofins DiscoverX KINOMEscan
From the text: as §2

ROS1 = target: T26, ROS1 (Homo sapiens, UniProt P08922); assay: KINOMEscan 1 μM, ROS1; type: binding; settings: 1000 nM; Entrez ROS1; read-out: Percent Control
T26 construct: purchased Eurofins DiscoverX KINOMEscan
From the text: as §2

RET = target: T27, RET (Homo sapiens, UniProt P07949); assay: KINOMEscan 1 μM, RET; type: binding; settings: 1000 nM; Entrez RET; read-out: Percent Control
T27 construct: purchased Eurofins DiscoverX KINOMEscan
From the text: as §2

KIT(D816H) = target: T28, KIT(D816H) (Homo sapiens, UniProt P10721, D816H); assay: KINOMEscan 1 μM, KIT(D816H); type: binding; settings: 1000 nM; Entrez KIT; read-out: Percent Control
T28 construct: purchased Eurofins DiscoverX KINOMEscan
From the text: as §2

ULK2 = target: T29, ULK2 (Homo sapiens, UniProt Q8IYT8); assay: DiscoverX KINOMEscan binding assay at 1 μM, ULK2; settings: Compound Concentration 1000 nM, read-out: Percent Control
T29 construct: purchased Eurofins DiscoverX KINOMEscan
From the text: as §2

S6K1 = target: T30, S6K1 (Homo sapiens, UniProt P23443); assay: DiscoverX KINOMEscan binding assay at 1 μM, S6K1; settings: S6K1 (RPS6KB1); Compound Concentration 1000 nM; read-out: Percent Control
T30 construct: purchased Eurofins DiscoverX KINOMEscan
From the text: as §2

ADCK4 = target: T31, ADCK4 (Homo sapiens, UniProt Q96D53); assay: KINOMEscan 1 μM, ADCK4; type: binding; settings: 1000 nM; Entrez ADCK4; read-out: Percent Control
T31 construct: purchased Eurofins DiscoverX KINOMEscan
From the text: as §2

HUNK = target: T32, HUNK (Homo sapiens, UniProt P57058); assay: KINOMEscan 1 μM, HUNK; type: binding; settings: 1000 nM; Entrez HUNK; read-out: Percent Control
T32 construct: purchased Eurofins DiscoverX KINOMEscan
From the text: as §2

T32 sequence (P57058 whole entry): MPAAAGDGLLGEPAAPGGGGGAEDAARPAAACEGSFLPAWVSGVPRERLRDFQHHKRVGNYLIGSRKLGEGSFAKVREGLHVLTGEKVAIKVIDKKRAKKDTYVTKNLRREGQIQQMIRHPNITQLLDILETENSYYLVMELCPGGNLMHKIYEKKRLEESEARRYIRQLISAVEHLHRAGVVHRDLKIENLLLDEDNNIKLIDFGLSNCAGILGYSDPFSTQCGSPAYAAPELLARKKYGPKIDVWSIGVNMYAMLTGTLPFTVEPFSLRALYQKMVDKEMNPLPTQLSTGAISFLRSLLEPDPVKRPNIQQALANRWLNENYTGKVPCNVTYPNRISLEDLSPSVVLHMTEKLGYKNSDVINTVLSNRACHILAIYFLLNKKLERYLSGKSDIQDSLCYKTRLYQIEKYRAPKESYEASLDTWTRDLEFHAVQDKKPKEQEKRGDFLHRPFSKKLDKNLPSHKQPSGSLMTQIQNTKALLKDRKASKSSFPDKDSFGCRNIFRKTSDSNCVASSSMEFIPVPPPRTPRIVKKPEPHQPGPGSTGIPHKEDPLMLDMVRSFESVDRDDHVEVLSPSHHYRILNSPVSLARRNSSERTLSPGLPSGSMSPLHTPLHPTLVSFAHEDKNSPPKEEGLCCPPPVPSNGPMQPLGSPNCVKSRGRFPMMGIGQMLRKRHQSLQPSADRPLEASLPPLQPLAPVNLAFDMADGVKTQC
T24 sequence (Q9Y2H9 whole entry): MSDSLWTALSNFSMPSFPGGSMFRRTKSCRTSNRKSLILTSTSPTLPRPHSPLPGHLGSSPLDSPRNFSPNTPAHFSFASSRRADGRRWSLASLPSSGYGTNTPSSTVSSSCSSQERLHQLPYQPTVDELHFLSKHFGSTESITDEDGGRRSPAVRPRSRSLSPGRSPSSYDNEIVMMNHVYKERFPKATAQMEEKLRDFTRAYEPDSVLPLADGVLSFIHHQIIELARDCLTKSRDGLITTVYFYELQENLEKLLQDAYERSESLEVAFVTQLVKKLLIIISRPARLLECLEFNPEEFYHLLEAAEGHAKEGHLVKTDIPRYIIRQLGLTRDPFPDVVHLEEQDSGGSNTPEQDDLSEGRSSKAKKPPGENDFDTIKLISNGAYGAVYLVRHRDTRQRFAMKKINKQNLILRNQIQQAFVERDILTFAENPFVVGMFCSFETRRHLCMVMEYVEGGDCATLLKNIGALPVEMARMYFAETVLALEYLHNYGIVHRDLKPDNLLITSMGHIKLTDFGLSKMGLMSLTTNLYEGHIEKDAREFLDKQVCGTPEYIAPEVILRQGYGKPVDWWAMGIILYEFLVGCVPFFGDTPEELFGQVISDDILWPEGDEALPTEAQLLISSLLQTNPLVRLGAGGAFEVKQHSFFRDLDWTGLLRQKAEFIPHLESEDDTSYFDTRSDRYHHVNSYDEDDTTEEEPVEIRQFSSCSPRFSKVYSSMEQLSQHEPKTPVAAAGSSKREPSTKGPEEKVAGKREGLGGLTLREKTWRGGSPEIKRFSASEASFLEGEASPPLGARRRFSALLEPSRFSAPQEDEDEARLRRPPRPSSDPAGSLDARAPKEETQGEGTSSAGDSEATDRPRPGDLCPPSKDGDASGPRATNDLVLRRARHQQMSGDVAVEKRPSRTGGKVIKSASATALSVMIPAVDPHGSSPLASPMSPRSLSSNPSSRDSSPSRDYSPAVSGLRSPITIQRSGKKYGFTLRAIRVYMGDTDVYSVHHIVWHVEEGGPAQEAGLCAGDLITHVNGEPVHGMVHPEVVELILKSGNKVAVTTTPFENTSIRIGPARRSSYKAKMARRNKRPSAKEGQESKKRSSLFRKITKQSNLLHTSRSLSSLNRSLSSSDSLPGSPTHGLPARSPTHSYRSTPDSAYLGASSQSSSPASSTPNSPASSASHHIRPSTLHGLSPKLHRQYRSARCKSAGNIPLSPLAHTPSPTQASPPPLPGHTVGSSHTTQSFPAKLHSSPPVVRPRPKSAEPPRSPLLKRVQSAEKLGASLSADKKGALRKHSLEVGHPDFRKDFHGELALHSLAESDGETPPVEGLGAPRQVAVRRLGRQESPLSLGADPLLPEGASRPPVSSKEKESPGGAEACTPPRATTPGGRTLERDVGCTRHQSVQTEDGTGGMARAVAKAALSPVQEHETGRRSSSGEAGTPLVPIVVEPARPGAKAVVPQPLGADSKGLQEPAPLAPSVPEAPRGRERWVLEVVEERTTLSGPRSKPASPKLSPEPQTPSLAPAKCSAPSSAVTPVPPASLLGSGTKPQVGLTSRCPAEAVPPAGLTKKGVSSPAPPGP
T6 sequence (P48730 whole entry): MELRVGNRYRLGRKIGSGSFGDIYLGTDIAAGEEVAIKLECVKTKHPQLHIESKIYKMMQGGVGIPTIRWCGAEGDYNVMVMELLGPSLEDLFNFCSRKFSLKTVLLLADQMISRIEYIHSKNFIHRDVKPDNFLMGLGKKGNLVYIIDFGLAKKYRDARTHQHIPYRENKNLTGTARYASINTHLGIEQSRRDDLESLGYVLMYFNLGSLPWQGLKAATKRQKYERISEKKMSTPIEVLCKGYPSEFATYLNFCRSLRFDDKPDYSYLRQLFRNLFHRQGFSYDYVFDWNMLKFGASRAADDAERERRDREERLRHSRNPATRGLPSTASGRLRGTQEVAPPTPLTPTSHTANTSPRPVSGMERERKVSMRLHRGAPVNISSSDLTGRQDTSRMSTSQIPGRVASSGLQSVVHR
T22 sequence (P24723 whole entry): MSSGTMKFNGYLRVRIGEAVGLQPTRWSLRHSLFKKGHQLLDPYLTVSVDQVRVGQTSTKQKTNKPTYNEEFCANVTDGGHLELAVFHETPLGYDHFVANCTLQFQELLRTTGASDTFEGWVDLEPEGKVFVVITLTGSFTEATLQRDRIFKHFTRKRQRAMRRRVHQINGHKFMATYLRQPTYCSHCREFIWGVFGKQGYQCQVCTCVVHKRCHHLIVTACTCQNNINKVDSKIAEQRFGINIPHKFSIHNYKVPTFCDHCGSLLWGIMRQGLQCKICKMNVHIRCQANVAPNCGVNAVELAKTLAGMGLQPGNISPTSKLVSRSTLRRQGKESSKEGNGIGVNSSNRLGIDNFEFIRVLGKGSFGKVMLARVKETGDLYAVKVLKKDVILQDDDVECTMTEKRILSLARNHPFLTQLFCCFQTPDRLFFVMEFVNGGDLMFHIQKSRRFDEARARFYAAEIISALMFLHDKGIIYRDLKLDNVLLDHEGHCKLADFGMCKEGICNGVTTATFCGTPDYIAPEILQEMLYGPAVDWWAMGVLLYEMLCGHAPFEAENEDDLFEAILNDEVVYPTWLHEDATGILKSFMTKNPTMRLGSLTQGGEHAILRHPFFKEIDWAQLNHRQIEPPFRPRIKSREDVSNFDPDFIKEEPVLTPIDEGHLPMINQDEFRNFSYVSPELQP
T7 sequence (P29597 556-888 limits assumed): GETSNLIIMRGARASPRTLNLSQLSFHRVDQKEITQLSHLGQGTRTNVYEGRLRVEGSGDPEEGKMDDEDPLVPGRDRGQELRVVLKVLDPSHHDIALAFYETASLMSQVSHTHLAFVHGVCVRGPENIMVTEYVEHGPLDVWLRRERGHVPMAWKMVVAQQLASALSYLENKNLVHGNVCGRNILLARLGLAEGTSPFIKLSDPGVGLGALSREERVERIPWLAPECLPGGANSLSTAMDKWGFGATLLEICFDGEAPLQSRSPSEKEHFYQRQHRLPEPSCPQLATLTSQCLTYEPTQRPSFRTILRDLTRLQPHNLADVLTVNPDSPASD
T17 sequence (P08069 31-1367): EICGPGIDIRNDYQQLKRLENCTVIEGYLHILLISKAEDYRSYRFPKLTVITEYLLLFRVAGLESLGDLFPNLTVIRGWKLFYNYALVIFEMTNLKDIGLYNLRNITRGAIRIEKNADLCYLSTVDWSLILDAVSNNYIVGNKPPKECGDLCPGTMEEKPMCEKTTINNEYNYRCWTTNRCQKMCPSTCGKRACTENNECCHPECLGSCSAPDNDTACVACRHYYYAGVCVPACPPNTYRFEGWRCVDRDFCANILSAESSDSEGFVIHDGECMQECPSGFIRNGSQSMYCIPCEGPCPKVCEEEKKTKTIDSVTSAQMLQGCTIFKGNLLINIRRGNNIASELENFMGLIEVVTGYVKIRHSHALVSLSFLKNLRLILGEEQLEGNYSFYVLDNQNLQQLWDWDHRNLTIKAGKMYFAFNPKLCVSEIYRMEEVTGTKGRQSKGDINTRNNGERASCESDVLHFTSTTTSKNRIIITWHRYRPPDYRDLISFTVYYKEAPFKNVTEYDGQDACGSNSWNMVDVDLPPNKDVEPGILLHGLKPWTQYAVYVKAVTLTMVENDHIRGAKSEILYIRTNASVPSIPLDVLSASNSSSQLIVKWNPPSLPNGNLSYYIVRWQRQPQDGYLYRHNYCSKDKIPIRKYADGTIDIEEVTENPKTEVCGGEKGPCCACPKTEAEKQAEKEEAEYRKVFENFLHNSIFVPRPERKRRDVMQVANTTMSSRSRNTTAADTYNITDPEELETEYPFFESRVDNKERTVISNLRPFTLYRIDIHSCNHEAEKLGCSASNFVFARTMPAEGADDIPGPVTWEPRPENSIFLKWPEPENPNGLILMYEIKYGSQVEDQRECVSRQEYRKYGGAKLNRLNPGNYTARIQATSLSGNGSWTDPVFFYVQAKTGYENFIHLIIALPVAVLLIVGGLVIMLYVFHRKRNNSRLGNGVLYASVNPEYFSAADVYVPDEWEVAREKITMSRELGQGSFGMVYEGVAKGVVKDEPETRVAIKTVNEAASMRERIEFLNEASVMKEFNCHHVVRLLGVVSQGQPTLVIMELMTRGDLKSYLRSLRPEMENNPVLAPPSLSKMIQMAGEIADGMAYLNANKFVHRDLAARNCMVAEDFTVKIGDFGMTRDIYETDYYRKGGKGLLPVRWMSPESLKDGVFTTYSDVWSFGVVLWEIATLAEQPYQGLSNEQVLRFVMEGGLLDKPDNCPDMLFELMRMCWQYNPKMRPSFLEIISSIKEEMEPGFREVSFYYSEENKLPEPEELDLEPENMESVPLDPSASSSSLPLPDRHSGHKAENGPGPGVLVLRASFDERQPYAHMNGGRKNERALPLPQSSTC

For `O=C(O)c1ccc(-c2coc3ncc(-c4ccccc4)cc23)cc1Cl` [SGC-CAMKK2-1N (UNC-YL-83)], the remaining binding at 1 µM (FLT3(D835H)) was 88%, the remaining binding at 1 µM [1] was 91% and the remaining binding at 1 µM (CIT) was 87%. For the same compound, the remaining binding at 1 µM (MRCKA) was 96%, the remaining binding at 1 µM (TAOK2) was 78% and the remaining binding at 1 µM (CSNK1D) was 99%. For the same compound, the remaining binding at 1 µM [2] was 83%, the remaining binding at 1 µM (FGFR4) was 100% and the remaining binding at 1 µM (SLK) was 100%. For the same compound, the remaining binding at 1 µM (RIPK5) was 78%, the remaining binding at 1 µM (TBK1) was 64% and the remaining binding at 1 µM (CHEK1) was 91%. For the same compound, the remaining binding at 1 µM (CASK) was 81%, the remaining binding at 1 µM (PRKD1) was 100% and the remaining binding at 1 µM (DYRK1A) was 71%. The remaining binding at 1 µM (IRAK3) was 82%.
With `Cc1cccc(-c2cnc3occ(-c4ccc(C(=O)O)c(C5CCCC5)c4)c3c2)c1` [SGC-CAMKK2-1 (YL-36)] the remaining binding at 1 µM (IGF1R) was 100%, the “Percent Control” value (EGFR(L747-T751del,Sins)) was 85% and the remaining binding at 1 µM (TXK) was 100%. The remaining binding at 1 µM (CDC2L2) was 84%, the remaining binding at 1 µM (MYLK2) was 100% and the remaining binding at 1 µM (STK16) was 93%. It also gave a remaining binding at 1 µM (PRKCH) of 100%, a remaining binding at 1 µM [3] of 100% and a remaining binding at 1 µM (MAST1) of 65%. The remaining binding at 1 µM (TNIK) was 92%, the remaining binding at 1 µM (ROS1) was 84% and the remaining binding at 1 µM (RET) was 98%. The remaining binding at 1 µM (KIT(D816H)) was 87%, the remaining binding at 1 µM (ULK2) was 100% and the remaining binding at 1 µM (S6K1) was 100%. The remaining binding at 1 µM (ADCK4) was 100% and the remaining binding at 1 µM (HUNK) was 94%.

From article PMC9856672, “SGC-CAMKK2-1: A Chemical Probe for CAMKK2” (Cells, 2023)
